Like-named read-outs stand apart in the source and are kept apart here.
Tests used:
UACC-257 = experiment: NCI growth inhibition and cytotoxicity screen, Melanoma panel; settings: Homo sapiens; for CC50: UACC-257, read-out: LC50
NCI-H522 = experiment: NCI growth inhibition and cytotoxicity screen, Lung Cancer panel; assay type: cell-based; settings: Homo sapiens, Table 2, cell line NCI-H522 (Lung Cancer); for CC50: read-out: LC50 (the source's name)
[1] = system: full panel of 60 different cancer cell lines; experiment: NCI five dose screen, full panel summary; assay type: cell-based, human; settings: for GI50: Homo sapiens; for potent growth inhibition on % of the cancer cell lines: share of the cancer cell lines potently inhibited
SF-295 = experiment: NCI growth inhibition and cytotoxicity screen, CNS Cancer panel; assay type: cell-based; settings: Homo sapiens, Table 2, cell line SF-295 (CNS Cancer); for CC50: read-out: LC50 (the source's name)
PC-3 = experiment: NCI growth inhibition and cytotoxicity screen, Prostate Cancer panel; settings: Homo sapiens; for GI50: PC-3; for CC50: PC-3, read-out: LC50
SK-MEL-2 = experiment: NCI growth inhibition and cytotoxicity screen, Melanoma panel; settings: Homo sapiens; for GI50: SK-MEL-2; for CC50: SK-MEL-2, read-out: LC50
SK-MEL-28 = experiment: as above; settings: Homo sapiens; for GI50: SK-MEL-28; for CC50: SK-MEL-28, read-out: LC50
SW-620 = experiment: NCI growth inhibition and cytotoxicity screen, Colon Cancer panel; settings: Homo sapiens; for GI50: SW-620; for CC50: SW-620, read-out: LC50
HCT-116 = experiment: as above; settings: Homo sapiens; for GI50: HCT-116; for CC50: HCT-116, read-out: LC50
SF-539 = experiment: NCI growth inhibition and cytotoxicity screen, CNS Cancer panel; settings: Homo sapiens; for GI50: SF-539; for CC50: SF-539, read-out: LC50
RPMI-8226 = experiment: NCI growth inhibition and cytotoxicity screen, Leukemia panel; settings: Homo sapiens; for GI50: RPMI-8226; for CC50: RPMI-8226, read-out: LC50
LOX-IMVI = experiment: NCI growth inhibition and cytotoxicity screen, Melanoma panel; settings: Homo sapiens; for CC50: read-out: LC50
ACHN = experiment: NCI growth inhibition and cytotoxicity screen, Renal Cancer panel; settings: Homo sapiens; for CC50: read-out: LC50
A549/ATCC = experiment: NCI growth inhibition and cytotoxicity screen, Lung Cancer panel; settings: Homo sapiens; for GI50: A549; for CC50: A549, read-out: LC50
CCRF-CEM = experiment: NCI growth inhibition and cytotoxicity screen, Leukemia panel; settings: Homo sapiens; for CC50: read-out: LC50
KM12 = experiment: NCI growth inhibition and cytotoxicity screen, Colon Cancer panel; settings: Homo sapiens; for GI50: KM12; for CC50: KM12, read-out: LC50
NCI-H226 = experiment: NCI growth inhibition and cytotoxicity screen, Lung Cancer panel; settings: Homo sapiens; for GI50: NCI-H226; for CC50: NCI-H226, read-out: LC50
RXF 393 = experiment: NCI growth inhibition and cytotoxicity screen, Renal Cancer panel; settings: Homo sapiens; for GI50: RXF 393; for CC50: RXF 393, read-out: LC50
HT29 = experiment: NCI growth inhibition and cytotoxicity screen, Colon Cancer panel; settings: Homo sapiens; for GI50: HT-29; for CC50: HT-29, read-out: LC50
MALME-3M = experiment: NCI growth inhibition and cytotoxicity screen, Melanoma panel; settings: Homo sapiens
SN12C = experiment: NCI growth inhibition and cytotoxicity screen, Renal Cancer panel; settings: Homo sapiens; for CC50: read-out: LC50
SK-MEL-5 = experiment: NCI growth inhibition and cytotoxicity screen, Melanoma panel; settings: Homo sapiens; for GI50: SK-MEL-5; for CC50: SK-MEL-5, read-out: LC50
BT-549 = experiment: NCI growth inhibition and cytotoxicity screen, Breast Cancer panel; settings: Homo sapiens; for GI50: BT-549; for CC50: BT-549, read-out: LC50
HOP-62 = experiment: NCI growth inhibition and cytotoxicity screen, Lung Cancer panel; settings: Homo sapiens; for GI50: HOP-62; for CC50: HOP-62, read-out: LC50
A498 = experiment: NCI growth inhibition and cytotoxicity screen, Renal Cancer panel; settings: Homo sapiens; for GI50: A498; for CC50: A498, read-out: LC50
MDA-MB-468 = experiment: cells; settings: Homo sapiens; for GI50: MDA-MB-468; for CC50: MDA-MB-468, read-out: LC50
DU-145 = experiment: NCI growth inhibition and cytotoxicity screen, Prostate Cancer panel; settings: Homo sapiens; for GI50: DU-145; for CC50: DU-145, read-out: LC50
OVCAR-8 = experiment: NCI growth inhibition and cytotoxicity screen, Ovarian Cancer panel; settings: Homo sapiens; for GI50: OVCAR-8; for CC50: OVCAR-8, read-out: LC50
[2] = range over the potently inhibited cell lines, read-out: GI50 ranging (potently inhibited cancer cell lines)
[3] = read-out: average GI50 value on all the cancer cell lines

With `COc1cc(OC)cc(/C(C#N)=C/c2ccc3ccccc3n2)c1` [PNR-4-84, (Z)-2-(3,5-dimethoxyphenyl)-3-(quinolin-2-yl)acrylonitrile] the CC50 (UACC-257) was > 100000 nM, the GI50 (NCI-H522) was 94 nM and the CC50 (NCI-H522) was > 100000 nM. The GI50 [1, 2] was 94 to 983 nM, the GI50 [1, 3] was 490 nM and the “potent growth inhibition on % of the cancer cell lines” value [1] was 86%. For the same compound, the GI50 (SF-295) was 341 nM, the CC50 (SF-295) was > 100000 nM and the GI50 (PC-3) was 584 nM. For the same compound, the CC50 (PC-3) was > 100000 nM, the GI50 (SK-MEL-2) was 522 nM and the CC50 (SK-MEL-2) was > 100000 nM. For the same compound, the GI50 (SK-MEL-28) was 896 nM, the CC50 (SK-MEL-28) was > 100000 nM and the GI50 (SW-620) was 357 nM. The CC50 (SW-620) was > 100000 nM, the GI50 (HCT-116) was 416 nM and the CC50 (HCT-116) was 47300 nM. The GI50 (SF-539) was 286 nM, the CC50 (SF-539) was 8030 nM and the GI50 (RPMI-8226) was 433 nM. For the same compound, the CC50 (RPMI-8226) was > 100000 nM, the GI50 (LOX-IMVI) was 610 nM and the CC50 (LOX-IMVI) was > 100000 nM. The GI50 (ACHN) was 773 nM, the CC50 (ACHN) was > 100000 nM and the GI50 (A549/ATCC) was 649 nM. For the same compound, the CC50 (A549/ATCC) was > 100000 nM, the GI50 (CCRF-CEM) was 332 nM and the CC50 (CCRF-CEM) was > 100000 nM. For the same compound, the GI50 (KM12) was 425 nM, the CC50 (KM12) was > 100000 nM and the GI50 (NCI-H226) was 10800 nM. For the same compound, the CC50 (NCI-H226) was > 100000 nM, the GI50 (RXF 393) was 334 nM and the CC50 (RXF 393) was > 100000 nM. For the same compound, the GI50 (HT29) was 367 nM, the CC50 (HT29) was > 100000 nM and the GI50 (MALME-3M) was 348 nM. For the same compound, the CC50 (MALME-3M; read-out: LC50) was > 100000 nM, the GI50 (SN12C) was 661 nM and the CC50 (SN12C) was > 100000 nM. The GI50 (SK-MEL-5) was 406 nM, the CC50 (SK-MEL-5) was > 100000 nM and the GI50 (BT-549) was 342 nM. For the same compound, the CC50 (BT-549) was 80600 nM, the GI50 (HOP-62) was 959 nM and the CC50 (HOP-62) was > 100000 nM. The GI50 (A498) was 275 nM, the CC50 (A498) was > 100000 nM and the GI50 (MDA-MB-468) was 1500 nM. The CC50 (MDA-MB-468) was > 100000 nM, the GI50 (DU-145) was 801 nM and the CC50 (DU-145) was > 100000 nM. For the same compound, the GI50 (OVCAR-8) was 659 nM and the CC50 (OVCAR-8) was > 100000 nM.

For `COc1cc(/C(C#N)=C/c2ccc3ccccc3n2)cc(OC)c1OC` [PNR-4-90, (Z)-3-(quinolin-2-yl)-2-(3,4,5-trimethoxyphenyl)acrylonitrile], the GI50 (UACC-257; UACC-257) was 761 nM, the CC50 (UACC-257) was > 100000 nM and the GI50 (NCI-H522) was 37.2 nM. For the same compound, the CC50 (NCI-H522) was > 100000 nM, the GI50 [1, 2] was 33 to 943 nM and the GI50 [1, 3] was 400 nM. For the same compound, the “potent growth inhibition on % of the cancer cell lines” value [1] was 91%, the GI50 (SF-295) was 277 nM and the CC50 (SF-295) was > 100000 nM. For the same compound, the GI50 (PC-3) was 348 nM, the CC50 (PC-3) was > 100000 nM and the GI50 (SK-MEL-2) was 483 nM. The CC50 (SK-MEL-2) was > 100000 nM, the GI50 (SK-MEL-28) was 518 nM and the CC50 (SK-MEL-28) was > 100000 nM. For the same compound, the GI50 (SW-620) was 164 nM, the CC50 (SW-620) was > 100000 nM and the GI50 (HCT-116) was 234 nM. The CC50 (HCT-116) was > 100000 nM, the GI50 (SF-539) was 197 nM and the CC50 (SF-539) was 14900 nM. The GI50 (RPMI-8226) was 297 nM, the CC50 (RPMI-8226) was > 100000 nM and the GI50 (LOX-IMVI) was 766 nM. For the same compound, the CC50 (LOX-IMVI) was > 100000 nM, the GI50 (ACHN) was 1040 nM and the CC50 (ACHN) was > 100000 nM. The GI50 (A549/ATCC) was 375 nM, the CC50 (A549/ATCC) was > 100000 nM and the GI50 (CCRF-CEM) was 248 nM. The CC50 (CCRF-CEM) was > 100000 nM, the GI50 (KM12) was 350 nM and the CC50 (KM12) was > 100000 nM. For the same compound, the GI50 (NCI-H226) was 4780 nM, the CC50 (NCI-H226) was > 100000 nM and the GI50 (RXF 393) was 271 nM. The CC50 (RXF 393) was > 100000 nM, the GI50 (HT29) was 240 nM and the CC50 (HT29) was > 100000 nM. For the same compound, the GI50 (SN12C) was 627 nM, the CC50 (SN12C) was > 100000 nM and the GI50 (SK-MEL-5) was 243 nM. The CC50 (SK-MEL-5) was > 100000 nM, the GI50 (BT-549) was 315 nM and the CC50 (BT-549) was > 100000 nM. For the same compound, the GI50 (HOP-62) was 567 nM, the CC50 (HOP-62) was > 100000 nM and the GI50 (A498) was 295 nM. For the same compound, the CC50 (A498) was > 100000 nM, the GI50 (MDA-MB-468) was 243 nM and the CC50 (MDA-MB-468) was > 100000 nM. The GI50 (DU-145) was 446 nM, the CC50 (DU-145) was > 100000 nM and the GI50 (OVCAR-8) was 446 nM. The CC50 (OVCAR-8) was > 100000 nM.
